Patent EP1432683B9 (Recordati Ireland Limited, priority 2001, dated 2003)
Counter-ions that a name gives are not always drawn. Like-named read-outs stand apart in the source and are kept apart here.

Columns and labels:
[1] = Relative bioavailability of Form (I) and Form (II) in man; assay type: in vivo; conditions: 10 mg tablet
Experimental: Blood samples were taken at 15 points from time 0 to 24 h post-dosing and plasma concentrations of lercanidipine were determined with a stereoselective analytical method HPLC-MS/MS.

[2] = Solubility in mixtures of water-ethanol at 25°C and 40°C; assay type: physicochemical
[3] = Hygroscopicity by DVS analysis; assay type: physicochemical; conditions: 25°C
Experimental: The hygroscopicity of both crystalline Forms (I) and (II) was measured with DVS analysis by means of a water absorption analyzer (SURFACE MEASUREMENT SYSTEM, Marion, Buckinghamshire, UK) according to the following working conditions: […]

[4] = Bioavailability of crystalline Forms (I) and (II) in dogs; assay type: in vivo, Beagle dogs; conditions: for AUC0-t / Cmax / concentration in plasma of lercanidipine (S+R): oral 3 mg/kg
Experimental: A study was carried out on six Beagle dogs to evaluate the bioavailability of crystalline Forms (I) and (II).
Blood samples were taken at given times and plasma concentrations of lercanidipine were determined with a stereoselective analytical method HPLC-MS/MS, according to the following working conditions;
Lercanidipine was extracted from dog plasma by means of a liquid-liquid extraction with a mixture of n-hexane and ethyl ether. The dry residue of the organic phase was taken up with a mixture of methanol and water and a liquid-phase chromatographic separation (LC) was carried out; the two enantiomers of lercanidipine were separated on a CHIROBIOTIC V column (Vancomycin) (particle size […], column size 150 x 4.6 mm (ASTEC, NJ, USA)) and were detected with a mass spectrometer (MS/MS) by using an electrospray technique.
The analytical method was validated in a concentration range between 0.1 and 20 ng/ml of plasma for both enantiomers. The method has shown to be specific with an accuracy of 15%. The average concentrations of lercanidipine in the tables represent the sum of both enantiomers.

COC(=O)C1=C(C)NC(C)=C(C(=O)OC(C)(C)CN(C)CCC(c2ccccc2)c2ccccc2)C1c1cccc([N+](=O)[O-])c1 (single isomer, unassigned) [Form (I), lercanidipine hydrochloride]
tmax compared with Form (II) [1]: shorter than that of Form (II)
AUC(0-t) at 24 h ([1]; human, plasma, po, 10 mg, single dose, geom. least square mean): 8.82 ng·h/mL
Cmax ([1]; human, plasma, po, 10 mg, single dose, geom. least square mean, read-out: Cmax): 3.18 ng/mL
Tmax ([1]; human, plasma, po, 10 mg, single dose, median, read-out: tmax): 1.5 h
solubility compared with Form (II) ([2]; 25°C and 40°C): higher than that of crystalline Form (II)
water concentration at which the maximum solubility is reached ([2]; at both 25°C and 40°C): 20%
mass change ([3]; at 0% RH): -0.3%
mass change ([3]; at 95% RH): +0.15%
AUC0-t ([4]; Dog 1, hydrochloride, 3 mg/kg): 15.41 ng/h/mL
Cmax ([4]; Dog 1, hydrochloride, 3 mg/kg): 8.29 ng/mL
Cmax ([4]; Dog 2 (not included in mean), hydrochloride, 3 mg/kg): 128.87 ng/mL
AUC0-t ([4]; Dog 3, hydrochloride, 3 mg/kg): 27.544 ng/h/mL
Cmax ([4]; Dog 3, hydrochloride, 3 mg/kg): 11.62 ng/mL
AUC0-t ([4]; Dog 4, hydrochloride, 3 mg/kg): 46.57 ng/h/mL
Cmax ([4]; Dog 4, hydrochloride, 3 mg/kg): 27.17 ng/mL
AUC0-t ([4]; Dog 5, hydrochloride, 3 mg/kg): 70.39 ng/h/mL
Cmax ([4]; Dog 5, hydrochloride, 3 mg/kg): 22.58 ng/mL
AUC0-t ([4]; Dog 6, hydrochloride, 3 mg/kg): 28.72 ng/h/mL
Cmax ([4]; Dog 6, hydrochloride, 3 mg/kg): 17.83 ng/mL
Cmax ([4]; Mean (n=5, Dog 2 not included), hydrochloride, 3 mg/kg): 17.50 ng/mL
concentration in plasma of lercanidipine (S+R) ([4]; Time 0 h, Dog 1): 0.00 ng/mL
concentration in plasma of lercanidipine (S+R) ([4]; Time 0 h, Dog 2 (not included in mean)): 0.00 ng/mL
concentration in plasma of lercanidipine (S+R) ([4]; Time 0 h, Dog 3): 0.00 ng/mL
concentration in plasma of lercanidipine (S+R) ([4]; Time 0 h, Dog 4): 0.00 ng/mL
concentration in plasma of lercanidipine (S+R) ([4]; Time 0 h, Dog 5): 0.00 ng/mL
concentration in plasma of lercanidipine (S+R) ([4]; Time 0 h, Dog 6): 0.00 ng/mL
concentration in plasma of lercanidipine (S+R) ([4]; Time 0 h, Mean (Dog 2 not included)): 0.00 ng/mL
concentration in plasma of lercanidipine (S+R) ([4]; Time 0.5 h, Dog 2 (not included in mean), hydrochloride, 3 mg/kg, 30 min): 0.20 ng/mL
concentration in plasma of lercanidipine (S+R) ([4]; Time 0.5 h, Dog 3, hydrochloride, 3 mg/kg): 0.00 ng/mL
concentration in plasma of lercanidipine (S+R) ([4]; Time 0.5 h, Dog 4): 0.00 ng/mL
concentration in plasma of lercanidipine (S+R) ([4]; Time 0.5 h, Dog 5): 0.00 ng/mL
concentration in plasma of lercanidipine (S+R) ([4]; Time 0.5 h, Dog 6): 0.00 ng/mL
concentration in plasma of lercanidipine (S+R) ([4]; Time 0.5 h, Mean (Dog 2 not included), hydrochloride, 3 mg/kg): 0.00 ng/mL
concentration in plasma of lercanidipine (S+R) ([4]; Time 1 h, Dog 2 (not included in mean), hydrochloride, 3 mg/kg, 60 min): 0.29 ng/mL
concentration in plasma of lercanidipine (S+R) ([4]; Time 1 h, Dog 3, hydrochloride, 3 mg/kg): 0.00 ng/mL
concentration in plasma of lercanidipine (S+R) ([4]; Time 1 h, Dog 4, hydrochloride, 3 mg/kg): 0.00 ng/mL
concentration in plasma of lercanidipine (S+R) ([4]; Time 1 h, Dog 5, hydrochloride, 3 mg/kg): 0.00 ng/mL
concentration in plasma of lercanidipine (S+R) ([4]; Time 1 h, Dog 6): 0.00 ng/mL
concentration in plasma of lercanidipine (S+R) ([4]; Time 1 h, Mean (Dog 2 not included), hydrochloride, 3 mg/kg, 60 min): 0.12 ng/mL
concentration in plasma of lercanidipine (S+R) ([4]; Time 1.5 h, Dog 1, hydrochloride, 3 mg/kg, 90 min): 1.83 ng/mL
concentration in plasma of lercanidipine (S+R) ([4]; Time 1.5 h, Dog 2 (not included in mean), hydrochloride, 3 mg/kg, 90 min): 1.06 ng/mL
concentration in plasma of lercanidipine (S+R) ([4]; Time 1.5 h, Dog 3, hydrochloride, 3 mg/kg, 90 min): 0.32 ng/mL
concentration in plasma of lercanidipine (S+R) ([4]; Time 1.5 h, Dog 4, hydrochloride, 3 mg/kg): 0.00 ng/mL
concentration in plasma of lercanidipine (S+R) ([4]; Time 1.5 h, Dog 5, hydrochloride, 3 mg/kg, 90 min): 1.33 ng/mL
concentration in plasma of lercanidipine (S+R) ([4]; Time 1.5 h, Dog 6, hydrochloride, 3 mg/kg): 0.00 ng/mL
concentration in plasma of lercanidipine (S+R) ([4]; Time 1.5 h, Mean (Dog 2 not included), hydrochloride, 3 mg/kg, 90 min): 0.70 ng/mL
concentration in plasma of lercanidipine (S+R) ([4]; Time 2 h, Dog 1, hydrochloride, 3 mg/kg, 120 min): 8.29 ng/mL
concentration in plasma of lercanidipine (S+R) ([4]; Time 2 h, Dog 2 (not included in mean), hydrochloride, 3 mg/kg, 120 min): 8.94 ng/mL
concentration in plasma of lercanidipine (S+R) ([4]; Time 2 h, Dog 3, hydrochloride, 3 mg/kg, 120 min): 0.94 ng/mL
concentration in plasma of lercanidipine (S+R) ([4]; Time 2 h, Dog 4, hydrochloride, 3 mg/kg, 120 min): 0.35 ng/mL
concentration in plasma of lercanidipine (S+R) ([4]; Time 2 h, Dog 5, hydrochloride, 3 mg/kg, 120 min): 17.11 ng/mL
concentration in plasma of lercanidipine (S+R) ([4]; Time 2 h, Dog 6, hydrochloride, 3 mg/kg, 120 min): 0.28 ng/mL
concentration in plasma of lercanidipine (S+R) ([4]; Time 2 h, Mean (Dog 2 not included), hydrochloride, 3 mg/kg, 120 min): 5.39 ng/mL
concentration in plasma of lercanidipine (S+R) ([4]; Time 3 h, Dog 1, hydrochloride, 3 mg/kg, 180 min): 4.44 ng/mL
concentration in plasma of lercanidipine (S+R) ([4]; Time 3 h, Dog 2 (not included in mean), hydrochloride, 3 mg/kg, 180 min): 36.39 ng/mL
concentration in plasma of lercanidipine (S+R) ([4]; Time 3 h, Dog 3, hydrochloride, 3 mg/kg, 180 min): 0.92 ng/mL
concentration in plasma of lercanidipine (S+R) ([4]; Time 3 h, Dog 4, hydrochloride, 3 mg/kg, 180 min): 27.17 ng/mL
concentration in plasma of lercanidipine (S+R) ([4]; Time 3 h, Dog 5, hydrochloride, 3 mg/kg, 180 min): 22.58 ng/mL
concentration in plasma of lercanidipine (S+R) ([4]; Time 3 h, Dog 6, hydrochloride, 3 mg/kg, 180 min): 1.29 ng/mL
concentration in plasma of lercanidipine (S+R) ([4]; Time 3 h, Mean (Dog 2 not included), hydrochloride, 3 mg/kg, 180 min): 11.28 ng/mL
concentration in plasma of lercanidipine (S+R) ([4]; Time 4 h, Dog 1, hydrochloride, 3 mg/kg, 240 min): 1.81 ng/mL
concentration in plasma of lercanidipine (S+R) ([4]; Time 4 h, Dog 2 (not included in mean), hydrochloride, 3 mg/kg, 240 min): 128.87 ng/mL
concentration in plasma of lercanidipine (S+R) ([4]; Time 4 h, Dog 3, hydrochloride, 3 mg/kg, 240 min): 9.42 ng/mL
concentration in plasma of lercanidipine (S+R) ([4]; Time 4 h, Dog 4, hydrochloride, 3 mg/kg, 240 min): 11.07 ng/mL
concentration in plasma of lercanidipine (S+R) ([4]; Time 4 h, Dog 5, hydrochloride, 3 mg/kg, 240 min): 16.39 ng/mL
concentration in plasma of lercanidipine (S+R) ([4]; Time 4 h, Dog 6, hydrochloride, 3 mg/kg, 240 min): 6.26 ng/mL
concentration in plasma of lercanidipine (S+R) ([4]; Time 4 h, Mean (Dog 2 not included), hydrochloride, 3 mg/kg, 240 min): 8.99 ng/mL
concentration in plasma of lercanidipine (S+R) ([4]; Time 6 h, Dog 1, hydrochloride, 3 mg/kg, 360 min): 0.80 ng/mL
concentration in plasma of lercanidipine (S+R) ([4]; Time 6 h, Dog 2 (not included in mean), hydrochloride, 3 mg/kg, 360 min): 26.65 ng/mL
concentration in plasma of lercanidipine (S+R) ([4]; Time 6 h, Dog 3, hydrochloride, 3 mg/kg, 360 min): 11.62 ng/mL
concentration in plasma of lercanidipine (S+R) ([4]; Time 6 h, Dog 4, hydrochloride, 3 mg/kg, 360 min): 2.53 ng/mL
Tmax ([4]; dog, plasma, po, 3 mg/kg, Dog 1, read-out: Tmax): 2 h
Tmax ([4]; dog, plasma, po, 3 mg/kg, Dog 4, read-out: Tmax): 3 h
Tmax ([4]; dog, plasma, po, 3 mg/kg, Dog 5, read-out: Tmax): 3 h
Tmax ([4]; dog, plasma, po, 3 mg/kg, Dog 6, read-out: Tmax): 6 h
Tmax ([4]; dog, plasma, po, 3 mg/kg, Mean (n=5, Dog 2 not included), read-out: Tmax): 4 h
concentration at 0.5 h ([4]; dog, plasma, po, 3 mg/kg, Time 0.5 h, Dog 1, read-out: concentration in plasma of lercanidipine (S+R)): 0.1 ng/mL
concentration at 1 h ([4]; dog, plasma, po, 3 mg/kg, Time 1 h, Dog 1, read-out: concentration in plasma of lercanidipine (S+R)): 0.59 ng/mL
concentration at 6 h ([4]; dog, plasma, po, 3 mg/kg, Time 6 h (last sampling time), Mean (Dog 2 not included), read-out: concentration in plasma of lercanidipine (S+R)): 8.5 ± 6.5 ng/mL
concentration at 6 h ([4]; dog, plasma, po, 3 mg/kg, Time 6 h, Dog 5, read-out: concentration in plasma of lercanidipine (S+R)): 9.73 ng/mL
concentration at 6 h ([4]; dog, plasma, po, 3 mg/kg, Time 6 h, Dog 6, read-out: concentration in plasma of lercanidipine (S+R)): 17.8 ng/mL
